Format in all cases: cell-based
Assay [1] addresses T1, human A2B receptor (Homo sapiens, UniProt P29275).
T1 construct: expressed in transfected cells; host or cells: HEK293
T1 sequence (P29275 1-332): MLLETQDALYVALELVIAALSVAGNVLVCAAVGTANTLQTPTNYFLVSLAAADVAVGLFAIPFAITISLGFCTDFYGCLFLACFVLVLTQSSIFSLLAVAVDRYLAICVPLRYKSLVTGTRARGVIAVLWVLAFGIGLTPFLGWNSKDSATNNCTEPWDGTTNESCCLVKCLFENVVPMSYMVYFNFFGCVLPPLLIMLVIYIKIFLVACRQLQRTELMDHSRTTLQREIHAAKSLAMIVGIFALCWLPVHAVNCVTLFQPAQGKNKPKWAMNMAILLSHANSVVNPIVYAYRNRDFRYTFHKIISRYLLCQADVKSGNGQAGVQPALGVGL
Put plainly: Functional A2B receptor activity, recombinant HEK293 cells, cAMP (HTRF), agonist NECA. Particulars: read-out: Functional A2B receptor activity, HEK293, cAMP, IC50. The procedure, abridged: (§1)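 Forskolin, test compounds and agonist were added together to the cells and incubated for 30 min. Cellular cAMP was then quantified by HTRF. Raw signals were normalized to an inhibitor control and a neutral DMSO control, and the normalized data were curve-fitted.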

In assay [2] the target is T2, human A1 receptor (Homo sapiens, UniProt P30542).
T2 construct: expressed in transfected cells; host or cells: CHO
T2 sequence (P30542 1-326): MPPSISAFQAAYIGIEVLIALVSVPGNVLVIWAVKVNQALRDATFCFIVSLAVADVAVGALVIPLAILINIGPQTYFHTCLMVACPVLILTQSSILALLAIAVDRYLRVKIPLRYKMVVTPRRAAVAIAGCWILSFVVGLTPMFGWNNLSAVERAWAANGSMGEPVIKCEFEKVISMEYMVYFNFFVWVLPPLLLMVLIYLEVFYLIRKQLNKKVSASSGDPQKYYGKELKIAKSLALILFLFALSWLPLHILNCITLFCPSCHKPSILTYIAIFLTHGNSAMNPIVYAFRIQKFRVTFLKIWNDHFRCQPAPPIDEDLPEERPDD
Kind of assay: Functional A1 receptor activity, recombinant CHO cells, cAMP (HTRF), forskolin, agonist CPA. Particulars: recombinant CHO cells, forskolin, agonist CPA; read-out: Functional A1 receptor activity, CHO, cAMP, IC50. The procedure, abridged: (§2)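 Gi-coupled readout: CHO cells expressing human A1 or A3 receptor were treated with forskolin, test compound and agonist (CPA for A1, IB-MECA for A3) for 30 min; cellular cAMP was then measured by HTRF. Data were normalized to inhibitor and DMSO controls and curve-fitted.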
A general note: TR-FRET usually uses a lanthanide donor and a delayed reading to cut background.

Assay [3] has as its target T3, human A3 receptor (Homo sapiens, UniProt P0DMS8).
T3 construct: expressed in transfected cells; host or cells: CHO
T3 sequence (P0DMS8 1-318): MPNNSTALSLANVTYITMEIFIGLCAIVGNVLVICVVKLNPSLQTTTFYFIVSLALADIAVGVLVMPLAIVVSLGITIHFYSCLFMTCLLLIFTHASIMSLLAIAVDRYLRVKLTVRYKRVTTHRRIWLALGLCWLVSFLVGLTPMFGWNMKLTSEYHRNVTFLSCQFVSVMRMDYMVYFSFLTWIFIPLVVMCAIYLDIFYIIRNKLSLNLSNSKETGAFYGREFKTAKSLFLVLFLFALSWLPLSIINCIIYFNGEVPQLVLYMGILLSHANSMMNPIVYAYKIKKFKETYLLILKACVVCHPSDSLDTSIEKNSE
Kind of assay: Functional A3 receptor activity, recombinant CHO cells, cAMP (HTRF), forskolin, agonist IB-MECA. Particulars: recombinant CHO cells, forskolin, agonist IB-MECA; read-out: Functional A3 receptor activity, CHO, cAMP, IC50. In a few lines: as §2

Assay [4] has as its system mouse Pan T cells. Put plainly: mTcell assay, cAMP, agonist NECA. Particulars: Mus musculus, T-cell. The text has this:
Adenosine (Ado) in tumor microenvironment can inhibit T cell activity by signaling through A2A receptors and suppress cytokine secretion by T cells. […] Potential A2A antagonists or A2A/A2B dual antagonists can rescue T cells from this inhibition. Herein, we describe the in vitro system we established using Pan T cells from mouse spleens to screen potential A2A antagonists or A2A/A2B dual antagonists for their activity. The method described involves the use of CD3/CD28 pre-coated beads to stimulate Pan T cells purified from mouse splenocytes, combined with the addition of A2A agonist along with potential A2A or A2A/A2B dual antagonists to evaluate potentiation of T cell cytokine production.
Pan T-cells are isolated from black 6 mice by manual dissociation and purified using a Miltenyi Pan T-cell isolation kit. The isolated T-cells are activated in 96 well plates for 48 hours using anti-CD3/CD28 beads in T-cell proliferation media.
After 48 hours, the T-cells are pooled, counted and suspended in serum free media containing 0.1% BSA. The cells are plated at 50,000 cells per well in 10 ul of media and incubated for 2 hours at 37° C. Test compounds are dispensed into the wells at a 10-point dose response, starting at a concentration of 10 uM. […] The plates are incubated for 30 minutes at 37° C. and assayed for cAMP levels using the Cisbio cAMP Dynamic2 reagent kit by adding 10 ul of the kit reagents to each well. The plates are incubated for 1 hour at room temperature and the HTRF signal is read on an Envision plate reader. The raw data is analyzed in Genedata Screener and the resulting data is loaded into the database.

Assay [5] has as its target T4, human A2A receptor (Homo sapiens, UniProt P29274). Kind of assay: Human T cells, endogenous A2A receptor, cAMP, agonist NECA. Particulars: read-out: hTcell data, cAMP, IC50. The procedure, abridged: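 Pan T cells isolated from fresh human blood PBMC, endogenously expressing Gs-coupled A2A, treated with compounds. Cellular cAMP measured by HTRF after 1 h; data normalized to inhibitor control and DMSO neutral control, then curve-fitted.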

Assay [6] addresses T4, human A2A receptor. Kind of assay: Functional A2A receptor activity, recombinant HEK293 cells, cAMP (HTRF), agonist NECA. On the set-up: expressed in transfected cells; host or cells: HEK293. Particulars: read-out: Functional A2A receptor activity, HEK293, cAMP, IC50. The procedure, abridged: as §1

T4 sequence (P29274 whole entry): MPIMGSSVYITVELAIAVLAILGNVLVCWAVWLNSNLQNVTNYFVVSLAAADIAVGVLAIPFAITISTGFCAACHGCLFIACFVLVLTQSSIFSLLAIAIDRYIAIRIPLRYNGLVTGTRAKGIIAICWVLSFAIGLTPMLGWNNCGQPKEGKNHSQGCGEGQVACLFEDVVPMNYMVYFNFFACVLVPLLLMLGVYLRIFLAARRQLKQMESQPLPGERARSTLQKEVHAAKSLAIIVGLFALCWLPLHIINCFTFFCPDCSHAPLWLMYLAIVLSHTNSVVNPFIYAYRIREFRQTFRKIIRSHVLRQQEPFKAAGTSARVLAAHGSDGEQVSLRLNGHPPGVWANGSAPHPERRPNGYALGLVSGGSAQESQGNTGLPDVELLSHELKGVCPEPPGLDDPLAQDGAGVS

By IC50 is commonly meant the concentration needed to halve the response being measured. For `COc1ncc(-c2ccccc2)c2sc(NC(=O)N3CCC(N4C(=O)CNC4=O)CC3)nc12` [Compound 137, 4-(2,5-Dioxo-imidazolidin-1-yl)-piperidine-1-carboxylic acid (4-methoxy-7-phenyl-thiazolo[4,5-c]pyridin-2-yl)-amide], the IC50 in assay [1] is less than 10 nM; in assay [2] it was less than 1000 nM; in assay [3], more than 1000 nM; in assay [4] it was less than 10 nM; in assay [5], less than 10 nM; in assay [6], less than 10 nM.
As to `COc1nc(F)c(-c2ccccc2)c2sc(NC(=O)N3CC[C@@]4(CCCOC4)C3)nc12` [Compound 13, (5S)-N-{6-fluoro-4-methoxy-7-phenyl-[1,3]thiazolo[4,5-c]pyridin-2-yl}-7-oxa-2-azaspiro[4.5]decane-2-carboxamide], the half-inhibitory concentration (IC50) in assay [1] is less than 10 nM; in assay [2], less than 1000 nM; in assay [3] it was more than 1000 nM; in assay [4] it was less than 10 nM; in assay [5] it was less than 10 nM; in assay [6], less than 10 nM.
Regarding `COc1ncc(C2=CCOCC2)c2sc(NC(=O)N3CCC4(CCNCC4)C3)nc12` [Compound 98, 2,8-Diaza-spiro[4.5]decane-2-carboxylic acid [7-(3,6-dihydro-2H-pyran-4-yl)-4-methoxy-thiazolo[4,5-c]pyridin-2-yl]-amide], the IC50 in assay [1] is less than 100 nM; in assay [2], more than 1000 nM; in assay [3], more than 1000 nM; in assay [4] it was less than 100 nM; in assay [5] it was less than 10 nM; in assay [6] it was less than 10 nM.
In the case of `COc1nc(F)c(N2CCOCC2)c2sc(NC(=O)N3CC[C@]4(CCCOC4)C3)nc12` [Compound 10, (R)-7-Oxa-2-aza-spiro[4.5]decane-2-carboxylic acid (6-fluoro-4-methoxy-7-morpholin-4-yl-thiazolo[4,5-c]pyridin-2-yl)-amide], the 50% inhibitory concentration (IC50) in assay [1] was less than 100 nM; in assay [2] it was more than 1000 nM; in assay [3], more than 1000 nM; in assay [4] it was less than 10 nM; in assay [5] it was less than 10 nM; in assay [6], less than 10 nM.
`COc1ncc(C2=CCOCC2)c2sc(NC(=O)N3CCC(N4C(=O)CNC4=O)CC3)nc12` [Compound 131, 4-(2,5-Dioxo-imidazolidin-1-yl)-piperidine-1-carboxylic acid [7-(3,6-dihydro-2H-pyran-4-yl)-4-methoxy-thiazolo[4,5-c]pyridin-2-yl]-amide]: the IC50 in assay [1] was less than 10 nM; in assay [2] it was less than 1000 nM; in assay [3], more than 1000 nM; in assay [4], less than 100 nM; in assay [5] it was less than 10 nM; in assay [6] it was less than 10 nM.
As to `COc1ncc(-c2ccccc2)c2sc(NC(=O)N3CC[C@@H](CN)C3)nc12` [Compound 3, (S)-3-Aminomethyl-pyrrolidine-1-carboxylic acid (4-methoxy-7-phenyl-thiazolo[4,5-c]pyridin-2-yl)-amide], the IC50 in assay [1] is less than 10 nM; in assay [2] it was less than 1000 nM; in assay [3], more than 1000 nM; in assay [4], less than 10 nM; in assay [5], less than 10 nM; in assay [6], less than 10 nM.
For `COc1ncc(C2=CCOCC2)c2sc(NC(=O)N3CCC4(CCCNC4)C3)nc12` (stereo not drawn) [Compound 102, 2,7-Diaza-spiro[4.5]decane-2-carboxylic acid [7-(3,6-dihydro-2H-pyran-4-yl)-4-methoxy-thiazolo[4,5-c]pyridin-2-yl]-amide], the IC50 was less than 100 nM in assay [1]; more than 1000 nM in assay [2]; more than 1000 nM in assay [3]; less than 10 nM in assay [4]; less than 10 nM in assay [5]; less than 10 nM in assay [6].
`COc1nc(F)c(N2CCOCC2)c2sc(NC(=O)N3CCC4(CCCOC4)C3)nc12` (stereo not drawn) [Compound 7, 7-Oxa-2-aza-spiro[4.5]decane-2-carboxylic acid (6-fluoro-4-methoxy-7-morpholin-4-yl-thiazolo[4,5-c]pyridin-2-yl)-amide]: the half-maximal inhibitory concentration (IC50) is less than 10 nM in assay [1]; more than 1000 nM in assay [2]; more than 1000 nM in assay [3]; less than 10 nM in assay [4]; less than 10 nM in assay [5]; less than 10 nM in assay [6].
As for `COc1ccc(N2CCOCC2)c2sc(NC(=O)N3CCC4(CCCO4)CC3)nc12` [drawing 209], the IC50 in assay [4] was less than 1000 nM.
Still for that read-out and setting: for `COc1cnc(N2CCOCC2)c2sc(NC(=O)N3CCCCC3)nc12` [drawing 212] the value was less than 1000 nM.
For the compound `COc1ncc([C@H]2COCCO2)c2sc(NC(=O)N3CCC4(CCOCC4)C3)nc12` [Compound 152, 8-Oxa-2-aza-spiro[4.5]decane-2-carboxylic acid ((S)-7-[1,4]dioxan-2-yl-4-methoxy-thiazolo[4,5-c]pyridin-2-yl)-amide], the IC50 in assay [4] was less than 100 nM; in assay [5] it was less than 10 nM.
Regarding `COc1ncc(-c2cccc(Oc3cnn(C)c3)c2)c2sc(NC(=O)N3CCC4(CCOCC4)C3)nc12` [Compound 147, 8-Oxa-2-aza-spiro[4.5]decane-2-carboxylic acid {4-methoxy-7-[3-(1-methyl-1H-pyrazol-4-yloxy)-phenyl]-thiazolo[4,5-c]pyridin-2-yl}-amide], the IC50 in assay [1] is less than 10 nM; in assay [2], more than 1000 nM; in assay [3], less than 1000 nM; in assay [4], less than 10 nM; in assay [6] it was less than 10 nM.
Consider `COc1cnc(N2CCOCC2)c2sc(NC(=O)N3CCC4(CCCO4)CC3)nc12` [drawing 208], for which the half-inhibitory concentration (IC50) in assay [4] is more than 1000 nM.
On the same count and under the same terms, the value for `COc1ccc(-c2ccccc2)c2sc(NC(=O)NCCN3CCCCC3)nc12` [drawing 206] was more than 1000 nM; that for `COc1cnc(N2CCOCC2)c2sc(NC(=O)N3CCC(CO)CC3)nc12` [drawing 207] was less than 1000 nM.
Consider `COc1ncc(-c2ccoc2)c2sc(NC(=O)N3CCC4(CCOCC4)C3)nc12` [Compound 52, 8-Oxa-2-aza-spiro[4.5]decane-2-carboxylic acid (7-furan-3-yl-4-methoxy-thiazolo[4,5-c]pyridin-2-yl)-amide], for which the IC50 in assay [1] was less than 10 nM; in assay [2], more than 1000 nM; in assay [3], more than 1000 nM; in assay [4] it was less than 100 nM; in assay [6] it was less than 10 nM.
Regarding `COc1cnc(C2CCOCC2)c2sc(NC(=O)N3CCC(O)CC3)nc12` [drawing 210], in assay [4], the IC50 was less than 1000 nM.
